Drawing on patent publication US20230167127A1, “COMPOUNDS AND THEIR USE IN THE TREATMENT OF BACTERIAL INFECTION” (Hoffmann-La Roche Inc., priority 2020, published 2023), this text covers IC50 for 25 molecules.

Molecules are shown by their SMILES.

The subject of the first assay is Escherichia coli ATCC 25922. The experiment in a line: 50% growth inhibitory concentration (IC50) determination, Iso-Sensitest broth dilution. Format: cell-based. To be noted: Escherichia coli, ATCC25922, 16 h, strain Escherichia coli ATCC 25922; 10-point broth dilution, optical density at 600 nm over 16 h; read-out: Escherichia coli growth inhibition IC50. Put shortly:
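Growth was tracked as optical density at 600 nm every 20 minutes for 16 h at 35±2° C. Compounds from DMSO stocks were serially diluted twofold over 10 points (e.g. 50–0.097 μM final) in Iso-Sensitest broth. Inhibition computed in log-phase growth to give IC50.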
On the technique in general: Broth dilution looks for growth in wells or tubes with falling amounts of substance.
For orientation: IC50 means the concentration that inhibits the measured activity by half. On to `NC1(COc2ccc3c(c2Cl)CC(CNCCC2CN(c4ccc5c(n4)NC(=O)CO5)C(=O)O2)C3)CC1` (stereo not shown) [Example 117, 6-[5-[2-[[5-[(1-aminocyclopropyl)methoxy]-4-chloro-2,3-dihydro-1H-inden-2-yl]methylamino]ethyl]-2-oxo-1,3-oxazolidin-3-yl]-4H-pyrido[3,2-b][1,4]oxazin-3-one; formic acid], for which the IC50 is less than 97.7 nM.

Consider `Cc1nc(OCCCN)c(C)c2c1CC(CNCCC1CN(c3ccc4c(n3)NC(=O)CO4)C(=O)O1)C2` (stereo not shown) [Example 176, 6-[5-[2-[[3-(3-aminopropoxy)-1,4-dimethyl-6,7-dihydro-5H-cyclopenta[c]pyridin-6-yl]methylamino]ethyl]-2-oxo-1,3-oxazolidin-3-yl]-4H-pyrido[3,2-b][1,4]oxazin-3-one], for which the IC50 turned out to be 483 nM.

In the case of `N#Cc1cccc2c1CC(CNCC1CN(c3ccc4c(n3)NC(=O)CO4)C(=O)O1)C2N` (racemic) [Example 229, rac-1,2-trans-1-Amino-2-((((2-oxo-3-(3-oxo-3,4-dihydro-2H-pyrido[3,2-b][1,4]oxazin-6-yl)oxazolidin-5-yl)methyl)amino)methyl)-2,3-dihydro-1H-indene-4-carbonitrile], the IC50 was found to be 1570 nM.

As for `Cc1ncc(F)c2c1CC(N[C@H]1CC[C@@]3(CC1)CN(c1cnc4c(n1)NC(=O)CO4)C(=O)O3)C2` (stereo partly shown) [Example 298], the IC50 was 369 nM.

Take `N#Cc1cccc2c1CC(N[C@H]1CC[C@H](C3CN(c4ccc5c(n4)NC(=O)CO5)C(=O)O3)CC1)C2` (stereo partly drawn) [Example 34, 2-[[trans-4-[2-oxo-3-(3-oxo-4H-pyrido[3,2-b][1,4]oxazin-6-yl)-1,3-oxazolidin-5-yl]cyclohexyl]amino]-2,3-dihydro-1H-indene-4-carbonitrile; formic acid]: the IC50 turned out to be 1660 nM.

With `Cc1nccc2c1CC(CNCCC1CN(c3ccc4c(n3)NC(=O)CO4)C(=O)O1)C2O` (racemic) [Example 43, 6-[2-oxo-5-[2-[[rac-(5,6-trans)-5-hydroxy-1-methyl-6,7-dihydro-5H-cyclopenta[c]pyridin-6-yl]methylamino]ethyl]-1,3-oxazolidin-3-yl]-4H-pyrido[3,2-b][1,4]oxazin-3-one; formic acid], the IC50 was found to be 4140 nM.

For `CNC(=O)COc1cc(C#N)c2c(c1C)CC(CNCCC1CN(c3cnc4c(n3)NC(=O)CO4)C(=O)O1)C2` (stereo not shown) [Example 383, 2-[[7-cyano-4-methyl-2-[[2-[2-oxo-3-(3-oxo-4H-pyrazino[2,3-b][1,4]oxazin-6-yl)-1,3-oxazolidin-5-yl]ethylamino]methyl]-2,3-dihydro-1H-inden-5-yl]oxy]-N-methylacetamide], the IC50 worked out at 139 nM.

Take `CS(=O)(=O)CCOc1cc(F)c2c(c1)CC(CNCCC1CN(c3cnc4c(n3)NC(=O)CO4)C(=O)O1)C2` (stereo not shown) [Example 353, 6-[5-[2-[[4-fluoro-6-(2-methylsulfonylethoxy)-2,3-dihydro-1H-inden-2-yl]methylamino]ethyl]-2-oxo-1,3-oxazolidin-3-yl]-4H-pyrazino[2,3-b][1,4]oxazin-3-one; formic acid]: the IC50 was determined as 170 nM.

In the case of `O=C1COc2ncc(N3CC(CCNCC4Cc5cc(OCC(=O)N6CCC6)cc(F)c5C4)OC3=O)nc2N1` (stereo not shown) [Example 307, 6-[5-[2-[[6-[2-(azetidin-1-yl)-2-oxoethoxy]-4-fluoro-2,3-dihydro-1H-inden-2-yl]methylamino]ethyl]-2-oxo-1,3-oxazolidin-3-yl]-4H-pyrazino[2,3-b][1,4]oxazin-3-one; formic acid], the concentration for half-maximal inhibition (IC50) stood at 359 nM.

Take `O=C1COc2ccc(N3CC(CNCCC4Cc5cccc(Cl)c5C4)OC3=O)nc2N1` (stereo not shown) [Example 26, 6-[5-[ [2-(4-chloro-2,3-dihydro-1H-inden-2-yl)ethylamino]methyl]-2-oxo-1,3-oxazolidin-3-yl]-4H-pyrido[3,2-b][1,4]oxazin-3-one; formic acid]: the concentration for half-maximal inhibition (IC50) was less than 97.7 nM.

Regarding `CN(C)CCOc1cc(F)c2c(c1)CC(CNCCC1CN(c3ccc4c(n3)NC(=O)CO4)C(=O)O1)C2` (stereo not shown) [Example 271, 6-[5-[2-[[6-[2-(Dimethylamino)ethoxy]-4-fluoro-2,3-dihydro-1H-inden-2-yl]methylamino]ethyl]-2-oxo-1,3-oxazolidin-3-yl]-4H-pyrido[3,2-b][1,4]oxazin-3-one; formic acid], the IC50 is less than 97.7 nM.

For the molecule `Cc1c(OC[C@H](N)CO)nc(C#N)c2c1CC(CNCCC1CN(c3ccc4c(n3)NC(=O)CO4)C(=O)O1)C2` (stereo partly drawn) [Example 235, 3-[(2R)-2-Amino-3-hydroxypropoxy]-4-methyl-6-[[2-[2-oxo-3-(3-oxo-4H-pyrido[3,2-b][1,4]oxazin-6-yl)-1,3-oxazolidin-5-yl]ethylamino]methyl]-6,7-dihydro-5H-cyclopenta[c]pyridine-1-carbonitrile], the IC50 was 196 nM.

For the molecule `CS(=O)(=O)NCCOc1cc(F)c2c(c1)CC(CNCCC1CN(c3cnc4c(n3)NC(=O)CO4)C(=O)O1)C2` (stereo not shown) [Example 324, N-[2-[[7-fluoro-2-[[2-[2-oxo-3-(3-oxo-4H-pyrazino[2,3-b][1,4]oxazin-6-yl)-1,3-oxazolidin-5-yl]ethylamino]methyl]-2,3-dihydro-1H-inden-5-yl]oxy]ethyl]methanesulfonamide], the IC50 was 205 nM.

As to `Cc1cnc(C)c2c1CC(CNCCC1CN(c3cnc4c(n3)NC(=O)CO4)C(=O)O1)C2` (stereo not shown) [Example 268, 6-[5-[2-[(1,4-Dimethyl-6,7-dihydro-5H-cyclopenta[c]pyridin-6-yl)methylamino]ethyl]-2-oxo-1,3-oxazolidin-3-yl]-4H-pyrazino[2,3-b][1,4]oxazin-3-one], the IC50 is less than 97.7 nM.

Regarding `Cc1nc(OCCN)cc2c1CC(CNCCC1CN(c3ccc4c(n3)NC(=O)CO4)C(=O)O1)C2` (stereo not shown) [Example 209, 6-[5-[2-[[3-(2-aminoethoxy)-1-methyl-6,7-dihydro-5H-cyclopenta[c]pyridin-6-yl]methylamino]ethyl]-2-oxo-1,3-oxazolidin-3-yl]-4H-pyrido[3,2-b][1,4]oxazin-3-one], the IC50 is 845 nM.

`CC(C)(O)COc1cc(F)c2c(c1)CC(CNCCC1CN(c3cnc4c(n3)NC(=O)CO4)C(=O)O1)C2` (stereo not shown) [Example 292, 6-[5-[2-[[4-fluoro-6-(2-hydroxy-2-methylpropoxy)-2,3-dihydro-1H-inden-2-yl]methylamino]ethyl]-2-oxo-1,3-oxazolidin-3-yl]-4H-pyrazino[2,3-b][1,4]oxazin-3-one]: the IC50 amounted to 403 nM.

`O=C1COc2ccc(N3CC(CNC4Cc5cccc(Cl)c5C4)OC3=O)nc2N1` (stereo not shown) [Example 22, 6-[5-[[(4-chloro-2,3-dihydro-1H-inden-2-yl)amino]methyl]-2-oxo-1,3-oxazolidin-3-yl]-4H-pyrido[3,2-b][1,4]oxazin-3-one]: the IC50 was 8530 nM.

With `O=C1COc2ncc(N3CC(CCNCC4Cc5cc(OCCn6nccn6)cc(F)c5C4)OC3=O)nc2N1` (stereo not shown) [Example 343, 6-[5-[2-[[4-fluoro-6-(2-(triazol-2-yl)ethoxy]-2,3-dihydro-1H-inden-2-yl]methylamino]ethyl]-2-oxo-1,3-oxazolidin-3-yl]-4H-pyrazino[2,3-b][1,4]oxazin-3-one; formic acid], the IC50 stood at 617 nM.

Regarding `Cc1ncc(F)c2c1CC(CN1CC(C3CN(c4cnc5c(n4)NC(=O)CO5)C(=O)O3)C1)C2` (stereo not shown) [Example 75, 6-[5-[1-[(4-fluoro-1-methyl-6,7-dihydro-5H-cyclopenta[c]pyridin-6-yl)methyl]azetidin-3-yl]-2-oxo-oxazolidin-3-yl]-4H-pyrazino[2,3-b][1,4]oxazin-3-one; formic acid], the IC50 stood at 230 nM.

Take `CC(C)(N)COc1cc(C#N)c2c(c1)CC(CN1CCC3(CC1)CN(c1cnc4c(n1)NC(=O)CO4)C(=O)O3)C2` (stereo not shown) [Example 407, 6-(2-amino-2-methylpropoxy)-2-[[2-oxo-3-(3-oxo-4H-pyrazino[2,3-b][1,4]oxazin-6-yl)-1-oxa-3,8-diazaspiro[4.5]decan-8-yl]methyl]-2,3-dihydro-1H-indene-4-carbonitrile]: the IC50 was less than 97.7 nM.

Turning to `N#Cc1cccc2c1CC(CN1CCC3(CC1)CN(c1cnc4c(n1)NC(=O)CO4)C(=O)O3)C2` (stereo not shown) [Example 261, 2-[[2-Oxo-3-(3-oxo-4H-pyrazino[2,3-b][1,4]oxazin-6-yl)-1-oxa-3,8-diazaspiro[4.5]decan-8-yl]methyl]-2,3-dihydro-1H-indene-4-carbonitrile; formic acid], the IC50 was less than 97.7 nM.

As to `CC(N)COc1cc(F)c2c(c1)CC(CNCCC1CN(c3ccc4c(n3)NC(=O)CO4)C(=O)O1)C2` (stereo not shown) [Example 154, 6-[5-[2-[[6-(2-aminopropoxy)-4-fluoro-2,3-dihydro-1H-inden-2-yl]methylamino]ethyl]-2-oxo-1,3-oxazolidin-3-yl]-4H-pyrido[3,2-b][1,4]oxazin-3-one], the IC50 was less than 97.7 nM.

As to `CNC(=O)COc1nc(C#N)c2c(c1C)CC(CNCCC1CN(c3ccc4c(n3)NC(=O)CO4)C(=O)O1)C2` (stereo not shown) [Example 221, 2-((1-Cyano-4-methyl-6-(((2-(2-oxo-3-(3-oxo-3,4-dihydro-2H-pyrido[3,2-b][1,4]oxazin-6-yl)oxazolidin-5-yl)ethyl)amino)methyl)-6,7-dihydro-5H-cyclopenta[c]pyridin-3-yl)oxy)-N-methylacetamide], the IC50 came to 302 nM.

Consider `O=C1COc2ccc(N3CC(CCNCC4Cc5cc(OC6CNC6)cc(F)c5C4)OC3=O)nc2N1` (stereo not shown) [Example 150, 6-[5-[2-[[6-(azetidin-3-yloxy)-4-fluoro-2,3-dihydro-1H-inden-2-yl]methylamino]ethyl]-2-oxo-1,3-oxazolidin-3-yl]-4H-pyrido[3,2-b][1,4]oxazin-3-one], for which the IC50 was less than 97.7 nM.

The same assay, now with this note: strain Escherichia coli ATCC 25922; 10-point broth dilution, optical density at 600 nm over 16 h; read-out: Escherichia coli growth inhibition IC50.
As to `Cc1ncc(F)c2c1CC(NCC(O)CC1CN(c3cnc4c(n3)NC(=O)CO4)C(=O)O1)C2` (single isomer, unassigned; isomer d) [Example 316, 6-[2-Oxo-5-[3-[(4-fluoro-1-methyl-6,7-dihydro-5H-cyclopenta[c]pyridin-6-yl)amino]-2-hydroxypropyl]-1,3-oxazolidin-3-yl]-4H-pyrazino[2,3-b][1,4]oxazin-3-one; formic acid, Isomer D], the IC50 stood at 957 nM.
